pKd: −log10 of the molar value.
Test: Compound was tested for the binding affinity towards HPPK Receptor without Mg 2
Parameters: species or system Escherichia coli

pKd: 5.71
Compound: Nc1nc2ncc(COP(=O)(O)OP(=O)(O)OP(=O)(O)OP(=O)(O)OC[C@H]3O[C@@H](n4cnc5c(N)ncnc54)[C@H](O)[C@@H]3O)nc2c(=O)[nH]1
